Test results reported in patent publication US10053431B2, “Tetrahydro-benzodiazepinones” (priority 2013, dated 2018).
Where a name gives a salt, the structure may show the parent alone. Read-outs that look alike come from different tables or passages of the source.

Legend:
BIR2 domain of XIAP = BIR2 domain of XIAP (Homo sapiens (Human), UniProt P98170, C202A/C213G); test: TR-FRET assay for BIR2 (inhibition of binding of XIAP BIR2 domain to SMAC-derived Peptide A); settings: 6x His-tagged BIR2 domain (aa 124-240 of XIAP) 10 nM, Peptide A 20 nM, TR-FRET; read-out: IC50 BIR2
BIR3 domain of XIAP = BIR3 domain of XIAP (Homo sapiens (Human), UniProt P98170); test: TR-FRET assay for BIR3 (inhibition of binding of XIAP BIR3 domain to SMAC-derived Peptide A)
[1] = 6x His-tagged BIR3 domain (aa 241-356 of XIAP) 10 nM, Peptide A 20 nM, TR-FRET

Sequence of BIR2 domain of XIAP (P98170 124-240 with tags or gaps C202A/C213G limits assumed): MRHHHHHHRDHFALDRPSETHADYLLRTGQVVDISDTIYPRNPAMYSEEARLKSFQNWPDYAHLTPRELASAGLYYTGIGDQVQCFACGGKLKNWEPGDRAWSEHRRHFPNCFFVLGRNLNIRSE
Sequence of BIR3 domain of XIAP (P98170 241-356 with tags or gaps limits assumed): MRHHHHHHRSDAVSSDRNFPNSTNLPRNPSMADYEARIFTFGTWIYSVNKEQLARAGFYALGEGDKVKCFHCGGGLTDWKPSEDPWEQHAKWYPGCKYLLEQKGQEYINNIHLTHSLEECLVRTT

Compound	IC50 (BIR2 domain of XIAP)	IC50 (BIR3 domain of XIAP; [1])	IC50 (BIR3 domain of XIAP)
CN[C@@H](C)C(=O)N[C@H]1CN(C(=O)CCC(=O)O)c2ccccc2N(Cc2c(C)ccc3ccccc23)C1=O [Example 16, 4-[(S)-3-((S)-2-Methylamino-propionylamino)-5-(2-methyl-naphthalen-1-ylmethyl)-4-oxo-2,3,4,5-tetrahydro-benzo[b][1,4]diazepin-1-yl]-4-oxo-butyric acid hydrochloride]	126 nM	> 54800 nM	–
CNC(=O)N1C[C@H](NC(=O)[C@H](C)NC)C(=O)N(Cc2c(C)ccc3ccccc23)c2ccccc21 [Example 17, (S)-3-((S)-2-Methylamino-propionylamino)-5-(2-methyl-naphthalen-1-ylmethyl)-4-oxo-2,3,4,5-tetrahydro-benzo[b][1,4]diazepine-1-carboxylic acid methylamide hydrochloride]	1430 nM	–	> 54800 nM
CN[C@@H](C)C(=O)N[C@H]1CN(S(=O)(=O)CS(C)(=O)=O)c2ccccc2N(Cc2c(C)ccc3ccccc23)C1=O [Example 18, (S)—N—[(S)-5-Methanesulfonylmethanesulfonyl-1-(2-methyl-naphthalen-1-ylmethyl)-2-oxo-2,3,4,5-tetrahydro-1H-benzo[b][1,4]diazepin-3-yl]-2-methylamino-propionamide trifluoroacetate]	590 nM	> 54800 nM	–
CN[C@@H](C)C(=O)N[C@H]1CN(S(C)(=O)=O)c2ccccc2N(Cc2c(C)ccc3ccccc23)C1=O [Example 19, (S)—N—[(S)-5-methanesulfonyl-1-(2-methyl-naphthalen-1-ylmethyl)-2-oxo-2,3,4,5-tetrahydro-1H-benzo[b][1,4]diazepin-3-yl]-2-methylamino-propionamide hydrochloride]	620 nM	> 54800 nM	–
CN[C@@H](C)C(=O)N[C@H]1CN(C(=O)OC)c2ccccc2N(Cc2c(C)ccc3ccccc23)C1=O [Example 20, ((S)-3-((S)-2-Methylamino-propionylamino)-5-(2-methyl-naphthalen-1-ylmethyl)-4-oxo-2,3,4,5-tetrahydro-benzo[b][1,4]diazepine-1-carboxylic acid methyl ester hydrochloride]	588 nM	> 54800 nM	–
CN[C@@H](C)C(=O)N[C@H]1CN(C(=O)c2ccc(C(C)=O)cc2)c2ccccc2N(CCc2cccc3ccccc23)C1=O [Example 40, (S)—N—((S)-5-(4-acetylbenzoyl)-1-(2-(naphthalen-1-yl)ethyl)-2-oxo-2,3,4,5-tetrahydro-1H-benzo[b][1,4]diazepin-3-yl)-2-(methylamino)propanamide]	173 nM	7420 nM	–
CN[C@@H](C)C(=O)N[C@H]1CN(C(=O)c2ccc(NC(C)=O)cc2)c2ccccc2N(Cc2c(OC)ccc3ccccc23)C1=O [Example 42, (S)—N—[(S)-5-(4-Acetylamino-benzoyl)-1-(2-methoxy-naphthalen-1-ylmethyl)-2-oxo-2,3,4,5-tetrahydro-1H-benzo[b][1,4]diazepin-3-yl]-2-methylamino-propionamide hydrochloride]	37 nM	> 54800 nM	–
CN[C@@H](C)C(=O)N[C@H]1CN(C(=O)c2ccc(C(C)=O)cc2)c2ccccc2N(Cc2c(OC)ccc3cc(C(=O)OC)ccc23)C1=O [Example 43, 5-[(S)-5-(4-Acetyl-benzoyl)-3-((S)-2-methylamino-propionylamino)-2-oxo-2,3,4,5-tetrahydro-benzo[b][1,4]diazepin-1-ylmethyl]-6-methoxy-naphthalen-2-carboxylic acid methyl ester hydrochloride]	57 nM	44100 nM	–
CN[C@@H](C)C(=O)N[C@H]1CN(C(=O)c2ccc(C(C)=O)cc2)c2ccccc2N(Cc2c(OC)ccc3cc(C(=O)O)ccc23)C1=O [Example 44, 5-[[(3S)-1-(4-acetylbenzoyl)-3-[[(2S)-2-(methylamino)propanoyl]amino]-4-oxo-2,3-dihydro-1,5-benzodiazepin-5-yl]methyl]-6-methoxy-naphthalene-2-carboxylic acid; hydrochloride]	16 nM	17400 nM	–
CN[C@@H](C)C(=O)N[C@H]1CN(C(=O)CCCC(C)=O)c2ccccc2N(Cc2c(OC)ccc3cc(C(=O)O)ccc23)C1=O [Example 47, 6-Methoxy-5-[(S)-3 ((S)-2-methylamino-propionylamino)-2-oxo-5-(5-oxo-hexanoyl)-2,3,4,5-tetrahydro-benzo[b][1,4]diazepin-1-ylmethyl]-naphthalene-2-carboxylic acid hydrochloride]	20 nM	44600 nM	–
CN[C@@H](C)C(=O)N[C@H]1CN(C(=O)CCCNC(=O)OCC2c3ccccc3-c3ccccc32)c2ccccc2N(Cc2c(OC)ccc3cc(C(=O)OC)ccc23)C1=O [Example 48, 5-[(S)-5-[4-(9H-Fluoren-9-ylmethoxycarbonylamino)-butyryl]-3-((S)-2-methylamino-propionylamino)-2-oxo-2,3,4,5-tetrahydro-benzo[b][1,4]diazepin-1-ylmethyl]-6-methoxy-naphthalene-2-carboxylic acid methyl ester hydrochloride]	23 nM	33200 nM	–
CN[C@@H](C)C(=O)N[C@H]1CN(C(=O)CCCN)c2ccccc2N(Cc2c(OC)ccc3cc(C(=O)OC)ccc23)C1=O [Example 49, 5-[(S)-5-(4-Amino-butyryl)-3-((S)-2-methylamino-propionylamino)-2-oxo-2,3,4,5-tetrahydro-benzo[b][1,4]diazepin-1-ylmethyl]-6-methoxy-naphthalene-2-carboxylic acid methyl ester hydrochloride]	127 nM	> 54800 nM	–
CN[C@@H](C)C(=O)N[C@H]1CN2C(=O)CCCNC(=O)c3ccc4c(c(OC)ccc4c3)CN(C1=O)c1ccccc12 [Example 51, Cyclic-5-[(S)-5-(4-Amino-butyryl)-3-((S)-2-methylamino-propionylamino)-2-oxo-2,3,4,5-tetrahydro-benzo[b][1,4]diazepin-1-ylmethyl]-6-methoxy-naphthalene-2-carboxylic amide hydrochloride]	58 nM	42800 nM	–
CN[C@@H](C)C(=O)N[C@H]1CN2C(=O)CCCCNC(=O)c3ccc4c(c(OC)ccc4c3)CN(C1=O)c1ccccc12 [Example 54, Cyclic-5-[(S)-5-(5-amino-pentanoyl)-3-((S)-2-methylamino-propionylamino)-2-oxo-2,3,4,5-tetrahydro-benzo[b][1,4]diazepin-1-ylmethyl]-6-methoxy-naphthalene-2-carboxylic amide hydrochloride]	18 nM	16000 nM	–
CN[C@@H](C)C(=O)N[C@H]1CN(C(=O)c2ccc(NC(=O)OCC3c4ccccc4-c4ccccc43)cc2)c2ccccc2N(Cc2c(OC)ccc3cc(C(=O)OC)ccc23)C1=O [Example 55, 5-[(S)-5-[4-(9H-Fluoren-9-ylmethoxycarbonylamino)-benzoyl]-3-((S)-2-methylamino-propionylamino)-2-oxo-2,3,4,5-tetrahydro-benzo[b][1,4]diazepin-1-ylmethyl]-6-methoxy-naphthalene-2-carboxylic acid methyl ester hydrochloride]	22 nM	> 54800 nM	–
CN[C@@H](C)C(=O)N[C@H]1CN(C(=O)c2ccc(N)cc2)c2ccccc2N(Cc2c(OC)ccc3cc(C(=O)O)ccc23)C1=O [Example 57, 5-(((S)-5-(4-aminobenzoyl)-3-((S)-2-(methylamino)propanamido)-2-oxo-2,3,4,5-tetrahydro-1H-benzo[b][1,4]diazepin-1-yl)methyl)-6-methoxy-2-naphthoic acid hydrochloride]	7 nM	20800 nM	–
CN[C@@H](C)C(=O)N[C@H]1CN2CCNC(=O)c3ccc4c(c(OC)ccc4c3)CN(C1=O)c1ccccc12 [Example 59, Cyclic-5-[(S)-5-(2-Amino-ethyl)-3-((S)-2-methylamino-propionylamino)-2-oxo-2,3,4,5-tetrahydro-benzo[b][1,4]diazepin-1-ylmethyl]-6-methoxy-naphthalene-2-carboxylic amide hydrochloride]	3780 nM	31400 nM	–
CN[C@@H](C)C(=O)N[C@H]1CN(C(=O)CCCCC(=O)O)c2ccccc2N(Cc2c(C)ccc3ccccc23)C1=O [Example 60, 6-((S)-3-((S)-2-(methylamino)propanamido)-5-((2-methylnaphthalen-1-yl)methyl)-4-oxo-2,3,4,5-tetrahydro-1H-benzo[b][1,4]diazepin-1-yl)-6-oxohexanoic acid hydrochloride]	166 nM	> 54800 nM	–
CN[C@@H](C)C(=O)N[C@H]1CN(C(=O)CCN)c2ccccc2N(Cc2c(OC)ccc3cc(C(=O)OC)ccc23)C1=O [Example 61, 5-[(S)-5-(3-Amino-propionyl)-3-((S)-2-methylamino-propionylamino)-2-oxo-2,3,4,5-tetrahydro-benzo[b][1,4]diazepin-1-ylmethyl]-6-methoxy-naphthalene-2-carboxylic acid methyl ester hydrochloride]	72 nM	> 54800 nM	–
CN[C@@H](C)C(=O)N[C@H]1CN2C(=O)CCNC(=O)c3ccc4c(c(OC)ccc4c3)CN(C1=O)c1ccccc12 [Example 63, Cyclic-5-[(S)-5-(3-Amino-propionyl)-3-((S)-2-methylamino-propionylamino)-2-oxo-2,3,4,5-tetrahydro-benzo[b][1,4]diazepin-1-ylmethyl]-6-methoxy-naphthalene-2-carboxylic amide hydrochloride]	19 nM	43000 nM	–
COc1ccc2ccccc2c1CN1C(=O)[C@@H](NC(=O)[C@H](C)N)CN(C(=O)c2ccc(N)cc2)c2ccccc21 [Example 65, (S)-2-amino-N—((S)-5-(4-aminobenzoyl)-1-((2-methoxynaphthalen-1-yl)methyl)-2-oxo-2,3,4,5-tetrahydro-1H-benzo[b][1,4]diazepin-3-yl)propanamide]	7 nM	23600 nM	–
